From patent US20260035360A1, “INHIBITORS OF MYC AND USES THEREOF” (Northwestern University, priority 2022, published 2026)

Experiments:
[1] = Toxicity (weight loss) in tumor-bearing mice; format: in vivo; details: weight loss class
Description: (§1) Table 3. Biological data of selected compounds. […] Tumor growth inhibition (TGI) was determined after 14 d.

PC3 cells = experiment: PC3 cell viability, CellTitreGlo Assay, 72 hrs; format: cell-based; details: Homo sapiens, PC-3
Description: (§2) Table 2. Biological data of selected compounds. For IC50 determination. PC3 and PC12 cells were treated with increasing concentrations of the indicated compounds for 72 hrs and cell viability assessed using CellTitreGlo Assay (Promega). For MYC and ATF4 protein level determination. PC3 cells were treated with the indicated compounds for 24 hr sand cell lysates processed for western blot with MYC and ATF4 antibodies using Actin as a control. Quantification analyses were performed by Biorad ChemiDoc Imager and Bio-Rad Image Lab software.

MycCaP;Pten-KO cells = experiment: Tumor growth inhibition, MycCaP;Pten-KO subcutaneous allograft in male FVB/N mice; format: in vivo; details: after 14 d; for Efficacy MycCaP;Pten-ko (TGI @ 100 mg/kg/d po): male FVB/N mice, Table 3; for TGI: QD, Table 7
Description: as §1
Table 7. Tumor Growth Inhibition data. […] Tumor growth inhibition (TOD was determined after 14 d.

PC12 cells = experiment: PC12 cell viability, CellTitreGlo Assay, 72 hrs; format: cell-based; details: for IC50: Rattus norvegicus, PC-12
Description: as §2

MYC = biological target: T1, MYC (Homo sapiens, UniProt P01106); experiment: MYC protein level in PC3 cells by western blot, 24 hr; format: cell-based; details: PC-3, 24 h, PC3, 24 h, Actin control, read-out: Relative MYC protein at 10 μM (%, PC3 24 h)
T1 construct: endogenous in cells; host or cells: PC3 cells
T1 sequence (P01106 whole entry): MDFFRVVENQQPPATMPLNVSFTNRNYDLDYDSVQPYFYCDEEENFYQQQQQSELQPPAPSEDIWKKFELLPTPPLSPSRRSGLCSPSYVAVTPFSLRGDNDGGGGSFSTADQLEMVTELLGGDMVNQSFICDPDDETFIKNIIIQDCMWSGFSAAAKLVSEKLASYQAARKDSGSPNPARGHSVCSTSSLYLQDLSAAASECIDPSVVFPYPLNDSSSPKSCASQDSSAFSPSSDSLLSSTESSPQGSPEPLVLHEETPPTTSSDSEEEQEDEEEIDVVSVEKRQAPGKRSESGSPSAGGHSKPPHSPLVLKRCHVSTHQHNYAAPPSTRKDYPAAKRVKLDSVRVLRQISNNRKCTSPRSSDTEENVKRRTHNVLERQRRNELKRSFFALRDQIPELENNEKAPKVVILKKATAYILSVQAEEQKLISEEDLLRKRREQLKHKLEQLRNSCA
Description: as §2

ATF4 = ATF4 protein level in PC3 cells by western blot, 24 hr; format: cell-based; details: Homo sapiens, PC-3, PC3, 24 h, Actin control, read-out: Relative ATF4 protein at 10 μM (fold change, PC3 24 h)
Description: as §2

[2] = female, mouse, in vivo, po, 1 mg/kg
Description: (§3) PK: Plasma levels of compounds were determined after 1 mg/kg dosing PO in female BALB/C mice.
(§4) Plasma levels of compounds were determined after 1 mg/kg dosing PO in female BALB/C mice.

[3] = Plasma pharmacokinetics after 1 mg/kg PO in female mice; details: mouse; for half-life: female mice
Description: as §3, §4

SMILES | IC50 (PC3 cells) [µM] | IC50 (PC12 cells) [µM] | remaining activity at 10 µM (MYC) [%] | fold induction at 10 µM (ATF4) | other results
Cn1nc(C(F)(F)F)cc1-c1ccc(OCc2ccc(Cl)cc2)c(-c2ccc(Cl)c(C(F)(F)F)c2)c1O [MYCi975, reference compound] | 2.9 ± 0.5 | > 16 | – | – | Toxicity @ 100 mg/kg/d [1]: − (−, 0-5% weight loss); Efficacy MycCaP;Pten-ko (TGI @ 100 mg/kg/d po) (MycCaP;Pten-KO cells): 50
Cn1nc(C(F)(F)F)cc1-c1ccc(COc2ccc(Cl)cc2)c(-c2ccc(Cl)c(C(F)(F)F)c2)c1O [NUCC-0202416] | 4.71 | – | 38.9 | 9.3 | AUMC0-t [2]: 88636 h*h*ng/mL; AUC(0-t) [3]: 5760 ng·h/mL; Cmax [3]: 244 ng/mL; Tmax [3]: 8 h; PC12 IC50 (PC12 cells): inactive
CN(C)c1c(Cl)cc(-c2cc(C(F)(F)F)nn2C)c(O)c1-c1ccc(Cl)c(C(F)(F)F)c1 [NUCC-0226530] | 12 | 9.4 | 35.5 | 3 | –
Cn1nc(C(F)(F)F)cc1-c1c(F)cc(OCc2ccc(Cl)cc2)c(-c2ccc(Cl)c(C(F)(F)F)c2)c1O [NUCC-0226545] | 2.2 | 10.8 | 19.5 | 4.7 | AUMC0-t [2]: 36107 h*h*ng/mL; AUC(0-t) [3]: 4760 ng·h/mL; Cmax [3]: 472 ng/mL; MRT inf [3]: 7.57 h; Tmax [3]: 4 h; half-life ([3]; T1/2, Table 4, PO 1 mg/kg): 4.3 h; half-life ([3]; T1/2—range*, Table 4, PO 1 mg/kg): 8 to 24 h
Cn1nc(C(F)(F)F)cc1-c1ccnc(-c2ccc(Cl)c(C(F)(F)F)c2)c1O [NUCC-0226595] | 0.74 | 4.03 | 69.8 | 6.3 | –
Cn1nc(C(F)(F)F)c(Cl)c1-c1ccc(COc2ccc(Cl)cc2)c(-c2ccc(Cl)c(C(F)(F)F)c2)c1O [NUCC-0226606] | 2.23 | 16.6 | 38.2 ± 3.9 | 9.7 ± 1.2 | AUMC0-t [2]: 177148 h*h*ng/mL; AUC(0-t) [3]: 15200 ng·h/mL; Cmax [3]: 841 ng/mL; Tmax [3]: 12 h; TGI (MycCaP;Pten-KO cells; 10 mg/kg p.o.): 43.1%; TGI (MycCaP;Pten-KO cells; 30 mg/kg p.o.): 56.4%; TGI (MycCaP;Pten-KO cells; 100 mg/kg p.o.): 74.6%; Efficacy MycCaP;Pten-ko (TGI @ 100 mg/kg/d po) (MycCaP;Pten-KO cells): 75
Cn1nc(C(F)(F)F)cc1-c1ccc(-c2ccc(Cl)cc2)c(OCc2ccc(Cl)c(C(F)(F)F)c2)c1O [NUCC-0226652] | 4.42 | 16.6 | 72.3 | 5.2 | –
Cn1cncc1-c1ccc(OCc2ccc(Cl)cc2)c(-c2ccc(Cl)c(C(F)(F)F)c2)c1O [NUCC-0226660] | > 50 | 9.22 | 94.4 | 2.5 | –
Cn1nc(C#N)cc1-c1ccc(OCc2ccc(Cl)cc2)c(-c2ccc(Cl)c(C(F)(F)F)c2)c1O [NUCC-0226914] | 1.01 | 3.5 | 48.5 | 14.1 | –
Cn1nc(N)cc1-c1ccc(OCc2ccc(Cl)cc2)c(-c2ccc(Cl)c(C(F)(F)F)c2)c1O [NUCC-0226915] | 14.2 | 10.5 | 86.9 | 0.95 | –
Cn1nc(C(F)(F)F)c(Cl)c1-c1cc(Cl)c(COc2ccc(Cl)cc2)c(-c2ccc(Cl)c(C(F)(F)F)c2)c1O [NUCC-0227037] | 0.96 | 11.1 | 33.6 | 15.1 | AUMC0-t [2]: 53530 h*h*ng/mL; AUMC0-∞ [2]: 66373 h*h*ng/mL; AUC(0-inf) [3]: 4200 ng·h/mL; AUC(0-t) [3]: 4000 ng·h/mL; Cmax [3]: 202 ng/mL; MRT inf [3]: 15.8 h; Tmax [3]: 4 h; half-life ([3]; T1/2, Table 6, PO 1 mg/kg): 10.7 h; half-life ([3]; T1/2—range*, Table 6, PO 1 mg/kg): 8 to 48 h; TGI (MycCaP;Pten-KO cells; 10 mg/kg p.o.): 43.99%; TGI (MycCaP;Pten-KO cells; 30 mg/kg p.o.): 57.24%; TGI (MycCaP;Pten-KO cells; 100 mg/kg p.o.): 81.48%; Efficacy MycCaP;Pten-ko (TGI @ 100 mg/kg/d po) (MycCaP;Pten-KO cells): 80
Cn1nc(C(F)(F)F)c(Cl)c1-c1cc(Cl)c(COc2ccc(Cl)cc2Cl)c(-c2ccc(Cl)c(C(F)(F)F)c2)c1O [NUCC-0227038] | 1.61 | 15.3 | 34.5 | 15.1 | –
Cn1nc(C(F)(F)F)cc1-c1cc(Cl)c(CNc2ccc(Cl)cc2)c(-c2ccc(Cl)c(C(F)(F)F)c2)c1O [NUCC-0227062] | 0.964 | 2.31 | 40.7 | 15 | –
Cn1nc(C(F)(F)F)c(Cl)c1-c1cc(F)c(COc2ccc(Cl)cc2)c(-c2ccc(Cl)c(C(F)(F)F)c2)c1O [NUCC-0227063] | 0.985 | 5.02 | 37.2 | 12.4 | –
Cn1nc(C(F)(F)F)c(Cl)c1-c1ccc(COc2ccc(Cl)cc2Cl)c(-c2ccc(Cl)c(C(F)(F)F)c2)c1O [NUCC-0227064] | 0.399 | 8.27 | 42 | 12.7 | –
Cn1nc(C#N)cc1-c1cc(Cl)c(COc2ccc(Cl)cc2)c(-c2ccc(Cl)c(C(F)(F)F)c2)c1O [NUCC-0227065] | 0.74 | 3.8 | 35.4 | 13.4 | –
Cn1nc(C(F)(F)F)cc1-c1cc2c(c(-c3ccc(Cl)c(C(F)(F)F)c3)c1O)CN(Cc1ccc(Cl)cc1)CC2 [NUCC-0227169] | 3.28 | 8.01 | 41.8 | 14.6 | –
Cn1nc(C(F)(F)F)cc1-c1cc2c(c(-c3ccc(Cl)c(C(F)(F)F)c3)c1O)OC(c1ccc(Cl)cc1)CC2 (centres unmarked) [NUCC-0227173] | 4.74 | 14.1 | 62.9 | 9 | –
Cn1nc(C(F)(F)F)cc1-c1cc(C(F)(F)F)c(COc2ccc(Cl)cc2)c(-c2ccc(Cl)c(C(F)(F)F)c2)c1O [NUCC-0227244] | 0.57 | 4.55 | 39.5 | 22.8 | Toxicity @ 100 mg/kg/d [1]: ++ (++, 15-20% weight loss)
Cn1nc(C(F)(F)F)cc1-c1cc(Cl)c(Oc2ccc(Cl)cc2)c(-c2ccc(Cl)c(C(F)(F)F)c2)c1O [NUCC-0227245] | 0.49 | 3.81 | 37.1 ± 1 | 20.3 ± 3.7 | Toxicity @ 100 mg/kg/d [1]: +++ (+++, >20% weight loss or death)
Cn1nc(C(F)(F)F)c(Cl)c1-c1cc(Cl)c(Oc2ccc(Cl)cc2)c(-c2ccc(Cl)c(C(F)(F)F)c2)c1O [NUCC-0227246] | 0.91 | 5.78 | 37.3 | 23.5 | –
Cn1nc(C(F)(F)F)cc1-c1ccc(Oc2ccc(Cl)cc2)c(-c2ccc(Cl)c(C(F)(F)F)c2)c1O [NUCC-0227247] | 1.14 | 7.12 | 46.7 | 18.3 | –
